Laboratory results from US6461997B1, “Triazole sulfones having herbicidal activity” (Monsanto Technology LLC, priority 1999, dated 2002).

Legend:
SETVI (green foxtail) = assay: Pre-plant incorporated (PPI) herbicidal activity, cool season; format: in vivo, Setaria viridis; conditions: for PPI activity GR80, SETVI: pre-plant incorporated, lowest tested rate with 80% or greater inhibition, about 14 days; for Percent inhibition SETVI: weed, PPI application
Protocol: (§1) In another set of tests, the pre-plant incorporated (PPI) activity of compounds of this invention was evaluated on the same species as for the pre-emergence tests described above. In the PPI tests the following procedure, designed to simulate PPI application, was used.
(§2) A pre-prepared topsoil mixture (described above) was placed in a pot and compacted to a depth of 1.0 to 1.25 cm from the top of the pot. Seeds of each of several monocotyledonous and dicotyledonous annual plant species were placed on top of the soil. A sufficient quantity of soil to cover the seeds and level fill the pot was weighed into an open container. A known amount of the test compound was dissolved or suspended in an organic solvent and applied by spraying to this cover soil. The cover soil was thoroughly mixed to distribute the test compound throughout the cover soil, and was then applied as a cover layer over the seeds. Untreated soil was used as a cover layer for control pots. After treatment the plants were placed in a greenhouse where they received 0.64 cm of overhead irrigation. All subsequent watering consisted of a light overhead mist and/or subirrigation as needed for germination and growth. Tables 9 and 10 below relate to warm season plant species which were placed after pre-emergence treatment in a greenhouse with a 30/21° C. day/night temperature regime. Tables 11 and 12 below relates to cool season plant species placed after pre-emergence treatment in a greenhouse or growth chamber with an 18/13° C. day/night temperature regime. Only the compounds of Examples 1, 6, 8, 11, 13 and 15-20 were included in PPI tests.
(§3) Approximately 14 days after planting and treating, the plants were observed and herbicidal efficacy recorded as percent inhibition by comparison with untreated plants.

[1] = test system: PANMI (wild proso millet); assay: Pre-plant incorporated (PPI) herbicidal activity, warm season; format: in vivo, Panicum miliaceum; conditions: for PPI activity GR80, PANMI: pre-plant incorporated, lowest tested rate with 80% or greater inhibition, about 14 days
Protocol: as §1, §2, §3

wheat (TRZAW) = assay: Selectivity test, PPI, cool season crop; format: in vivo, Triticum aestivum; conditions: PPI application
Protocol: as §2, §3
Additional pre-emergence and PPI tests were conducted by the procedures described above, on warm and cool season weed species in the presence of crop species, to assess herbicidal selectivity. Crop species included in warm season tests were corn (Zea mays, ZEAMX), rice (Oryza sativa, ORYSA) and soybean (Glycine max, GLYMX). Crop species included in cool season tests were wheat (Triticum aestivum, TRZAW), barley (Hordeunm vulgare, HORVX) and oilseed rape (Brassica napus, BRSNS).
Tables 15 and 16 relate to pre-emergence and PPI tests respectively on warm season species. Table 17 relates to pre-emergence tests on cool season species.

AMARE (redroot pigweed) = assay: Pre-plant incorporated (PPI) herbicidal activity, warm season; format: in vivo, Amaranthus retroflexus; conditions: for PPI activity (GR80) AMARE: pre-plant incorporated, GR80 = lowest tested rate with 80% or greater inhibition, approx. 14 days after treating, 30/21° C.
Protocol: as §1, §2, §3

[2] = test system: AGRRE (quackgrass (seedling)); assay: Post-emergence herbicidal activity, cool season; format: in vivo, Elymus repens; conditions: abraded plants sprayed at 300, 100, 30 and 10 g/ha; about 14 days after treatment
Protocol: In another set of tests, the post-emergence activity of compounds of this invention was evaluated on the cool season species listed above. The following procedure was used.
A pre-prepared topsoil mixture (described above) was placed in a pot and compacted to a depth of 1.0 to 1.25 cm from the top of the pot. Seeds of each of several monocotyledonous and dicotyledonous annual plant species were placed on top of the soil. The seeds were covered with a mixture of 50% topsoil and 50% Rediearth™ in sufficient quantity to level-fill the pots. The pots were then placed on a greenhouse bench and subirrigated as needed.
When plants growing from the seeds had emerged and reached a suitable growth stage for post-emergence treatment, typically 9 to 14 days after planting, above-ground parts of the plants were subjected to a pre-treatment involving abrasion to create greater opportunity for foliar uptake of subsequently applied compounds. Abrasion was performed using garnet 200w particles applied with a Sears Craftsman hand-held sandblaster operated at approximately 850 kPa (50 psig) pressure.
A known amount of each test compound dissolved or suspended in an appropriate organic solvent was diluted with a 50:50 mix of acetone and water and applied to the plants by spraying with a standard spray nozzle in a spray volume of […] at a spray pressure of 511 kPa (30 psig). Only the compounds of Examples 1, 8-15 and 17-22 were included in post-emergence tests. Application rates for these compounds were 300, 100, 30 and 10 g/ha. Control plants were abraded but not sprayed.
After treatment the plants were placed in a greenhouse with an 18/13° C. day/night temperature regime and were subsequently watered as needed for growth. Approximately 14 days after treatment, the plants were observed and herbicidal efficacy recorded as percent inhibition by comparison with control plants. GR80 values were assigned for each compound as described above for the pre-emergence tests.

| SMILES | PPI activity GR80, SETVI (SETVI (green foxtail)) | Percent inhibition SETVI (SETVI (green foxtail); 30 g/ha) | Percent inhibition SETVI (SETVI (green foxtail); 100 g/ha) | Percent inhibition SETVI (SETVI (green foxtail); 300 g/ha) | Percent inhibition SETVI (SETVI (green foxtail); 900 g/ha) | Percent inhibition PANMI ([1]; PPI application, 30 g/ha) | Percent inhibition PANMI ([1]; PPI application, 100 g/ha) | Percent inhibition PANMI ([1]; PPI application, 300 g/ha) | Percent inhibition PANMI ([1]; PPI application, 900 g/ha) | PPI activity GR80, PANMI [1] | Percent inhibition TRZAW (wheat (TRZAW); 30 g/ha) | Percent inhibition TRZAW (wheat (TRZAW); 100 g/ha) | Percent inhibition TRZAW (wheat (TRZAW); 300 g/ha) | Percent inhibition TRZAW (wheat (TRZAW); 900 g/ha) | Percent inhibition AMARE (AMARE (redroot pigweed); PPI application, 30 g/ha) | Percent inhibition AMARE (AMARE (redroot pigweed); PPI application, 100 g/ha) | Percent inhibition AMARE (AMARE (redroot pigweed); PPI application, 300 g/ha) | Percent inhibition AMARE (AMARE (redroot pigweed); PPI application, 900 g/ha) | PPI activity (GR80) AMARE (AMARE (redroot pigweed)) | other results |
| --- | --- | --- | --- | --- | --- | --- | --- | --- | --- | --- | --- | --- | --- | --- | --- | --- | --- | --- | --- | --- |
| CCN(CC)C(=O)n1cnc(S(=O)(=O)C(F)(F)C(F)F)n1 [Example 16] | 10 g/ha | 80% | 95% | 100% | 100% | 100% | 100% | 100% | 100% | 30 g/ha | 0% | 10% | 10% | 20% | 100% | 100% | 100% | 100% | 10 g/ha | Percent inhibition SETVI (SETVI (green foxtail); 10 g/ha): 100%; Percent inhibition PANMI ([1]; PPI application, 10 g/ha): 100%; Percent inhibition TRZAW (wheat (TRZAW); 10 g/ha): 0%; Percent inhibition AMARE (AMARE (redroot pigweed); PPI application, 10 g/ha): 80% |
| CCN(CC)C(=O)n1cnc(S(=O)(=O)C(F)(F)C(F)(F)Br)n1 [Example 4] | – | 99% | 100% | 100% | 100% | 0% | 100% | 100% | 100% | – | 0% | 10% | 30% | 45% | 70% | 100% | 100% | 100% | – | – |
| CCN(CC)C(=O)n1cnc(S(=O)(=O)C(F)F)n1 [Example 15, 1-(N,N-diethylcarbamoyl)-3-(difluoromethylsulfonyl)-1,2,4-triazole] | 100 g/ha | – | – | – | – | – | – | – | – | 30 g/ha | – | – | – | – | – | – | – | – | 100 g/ha | inhibition at 10 g/ha ([1]; Panicum miliaceum, PPI application, 10 g/ha, read-out: Percent inhibition PANMI): 10%; inhibition at 30 g/ha ([1]; Panicum miliaceum, PPI application, 30 g/ha, read-out: Percent inhibition PANMI): 70%; inhibition at 100 g/ha ([1]; Panicum miliaceum, PPI application, 100 g/ha, read-out: Percent inhibition PANMI): 99%; inhibition at 300 g/ha ([1]; Panicum miliaceum, PPI application, 300 g/ha, read-out: Percent inhibition PANMI): 100%; inhibition at 900 g/ha ([1]; Panicum miliaceum, PPI application, 900 g/ha, read-out: Percent inhibition PANMI): 100%; Post-emergence activity GR80, AGRRE [2]: [empty]; inhibition at 10 g/ha (AMARE (redroot pigweed); Amaranthus retroflexus, PPI application, 10 g/ha, read-out: Percent inhibition AMARE): 20%; inhibition at 30 g/ha (AMARE (redroot pigweed); Amaranthus retroflexus, PPI application, 30 g/ha, read-out: Percent inhibition AMARE): 100%; inhibition at 100 g/ha (AMARE (redroot pigweed); Amaranthus retroflexus, PPI application, 100 g/ha, read-out: Percent inhibition AMARE): 80%; inhibition at 300 g/ha (AMARE (redroot pigweed); Amaranthus retroflexus, PPI application, 300 g/ha, read-out: Percent inhibition AMARE): 100%; inhibition at 900 g/ha (AMARE (redroot pigweed); Amaranthus retroflexus, PPI application, 900 g/ha, read-out: Percent inhibition AMARE): 100% |
| CCN(CC)C(=O)n1cnc(S(=O)(=O)C(F)(F)Cl)n1 [Example 3] | – | 100% | 100% | 100% | 100% | 100% | 100% | 100% | 100% | – | 0% | 0% | 20% | 40% | 90% | 100% | 100% | 100% | – | – |
| CCN(CC)C(=O)n1cnc(S(=O)(=O)C(F)(F)C(=O)c2ccccc2)n1 [Example 6] | 300 g/ha | – | – | – | – | – | – | – | – | 100 g/ha | – | – | – | – | – | – | – | – | 100 g/ha | – |
